Laboratory results as given in patent US6762198B2, “Dihetero-substituted metalloprotease inhibitors” (The Procter & Gamble Company, priority 1999, dated 2004).

Key:
[1] = system: patient having deep corneal abrasion; experiment: Example C: saline-based eye drop in a patient with deep corneal abrasion; assay type: in vivo, human; conditions: 5% w/w saline-based drop to each eye twice a day
Description: A saline-based composition for local administration, according to the present invention, is made comprising:
A patient having deep corneal abrasion applies the drop to each eye twice a day.

[2] = system: human subject with a premetastatic tumor; experiment: Example G: parenteral suspension in a human subject with a premetastatic tumor; assay type: in vivo; conditions: about 2.0 mL of 100 mg/mL suspension injected beside the tumor twice daily, after 30 days
Procedure: A composition for parenteral administration is made comprising:
The above ingredients are mixed, forming a suspension. Approximately 2.0 mL of the suspension is administered, via injection, to a human subject with a premetastatic tumor. The injection site juxtaposes the tumor. This dosage is repeated twice daily, for approximately 30 days.

[3] = system: patient suffering from chemical bums; experiment: Example D: topical composition in a patient with chemical burns; assay type: in vivo, human; conditions: 0.20% w/v topical composition at each dressing change (b.i.d.)
Description: A topical composition for local administration, according to the present invention, is made comprising:
A patient suffering from chemical bums applies the composition at each dressing change (b.i.d.).

[4] = system: human subject suffering from osteoarthritis; experiment: Example B: oral capsule in a human subject with osteoarthritis; assay type: in vivo; conditions: human 90 kg, capsule containing 70 mg daily for 5 years
Procedure: A capsule for oral administration, according to the present invention, is made comprising:
A human subject weighing 90 kg (198 lbs.), suffering from osteoarthritis, is treated by a method of this invention. Specifically, for 5 years, a capsule containing 70 mg of the compound of Example 3 is administered daily to said subject.

asthma sufferer = experiment: Example E: inhalation aerosol in an asthma sufferer; assay type: in vivo, human; conditions: 0.01 mL of 5.0% w/v inhalation aerosol sprayed into the mouth while inhaling
[5] = system: human subject suffering from rheumatoid arthritis; experiment: Example A: oral tablets in a human subject with rheumatoid arthritis; assay type: in vivo; conditions: human 60 kg, three tablets (15 mg compound each) per day orally for 2 years
Procedure: A tablet composition for oral administration, according to the present invention, is made comprising:
A human subject weighing 60 kg (132 lbs), suffering from rheumatoid arthritis, is treated by a method of this invention. Specifically, for 2 years, a regimen of three tablets per day is administered orally to said subject.

For `Cc1ccc(C#Cc2ccc(S(=O)(=O)NC(CC(O)CSc3nccs3)C(=O)O)cc2)cc1` (stereo not drawn) [Example 10, 2-[[4-[(4-Methylphenyl)ethynyl]phenyl]sulfonyl]amino-4-hydroxy-5-[(2-thiazolyl)thio]-pentanoic Acid], the corneal healing [1] was “Healing is speeded, with no visual sequelae”.

With `COc1ccc(-c2ccc(S(=O)(=O)NC(CC(O)CSc3ncc[nH]3)C(=O)O)cc2)cc1` (stereo not drawn) [Example 22, 2-[(4′-Methoxy[1,1′-biphenyl]-4-yl)sulfonyl]amino-4-hydroxy-5[(2-imidazolyl)thio]-pentanoic Acid] the “symptoms of the disease” value [2] was “symptoms of the disease subside”.

`COc1ccc(-c2ccc(S(=O)(=O)NC(CC(O)CNc3ccccc3)C(=O)O)cc2)cc1` (stereo not drawn) [Example 19, 2-[(4′-Methoxy[1,1′-biphenyl]-4-yl)sulfonyl]amino-4-hydroxy-5-(phenylamino)-pentanoic Acid] was tested, and the scarring [3] was “Scarring is substantially diminished”.

With `O=C(O)C(CC(O)CSc1nccs1)NS(=O)(=O)c1ccc(-c2ccc(Oc3ccccc3)cc2)cc1` (stereo not drawn) [Example 3, 2-[(4′-Phenoxy[1,1′-biphenyl]-4-yl)sulfonyl]amino-4-hydroxy-5-[(2-thiazolyl)thio]pentanoic Acid] the “advancement of erosion/fibrillation of the articular cartilage (x-ray, arthroscopy and/or MRI)” value [4] was “no further advancement of erosion/fibrillation of the articular cartilage”.

`COc1ccc(-c2ccc(S(=O)(=O)NC(CC(O)CSc3n[nH]c(-c4ccccc4)n3)C(=O)O)cc2)cc1` (stereo not drawn) [Example 42, 2-[(4′-Methoxy[1,1′-biphenyl]-4-yl)sulfonyl]amino-4-hydroxy-5-[(5-phenyl-1H-1,2,4-triazol-3-yl)thio]-pentanoic Acid] was tested, and the asthma symptoms (asthma sufferer) was “Asthma symptoms are diminished”.

In the case of `COc1ccc(-c2ccc(S(=O)(=O)NC(CC(O)CSc3nccs3)C(=O)O)cc2)cc1` (stereo not drawn) [Example 1, 2-[(4′-Methoxy[1,1′-biphenyl]-4-yl)sulfonyl]amino-4-hydroxy-5-[(2-thiazolyl)thio]-pentanoic Acid], the “inflammation, mobility and pain at the end of the treatment period” value [5] is reported as “reduced inflammation, and improved mobility without concomitant pain”.
